Results as given in patent publication US8030493B2, “Monovalent and divalent salts of N-(5-hydroxynicotinoil) -L-glutamic acid exhibiting psychotropic (antidepressant and anxiolytic), neuroprotective, geroprotective and cerebroprotective action” (Obschestvo S Ogranichennoy Otvetstvennostyu “Natsionalnaya …, priority 2006, dated 2011).

How the values were obtained:
mice SAM P 10 [1] = assay: Anxiolytic activity: elevated criss-cross labyrinth in mice SAM P10; format: in vivo; conditions: 5 minutes observation
Description: (Takeda T. et al. Senescence-Accelerated Mouse (SAM): A novel murine model of accelerated senescence. J. Amer. Geriatr. Soc. 1991, v. 39, p. 911-919). The animals belonging to this line are characterized by genetically determined depression and impairment of learning capacity, these symptoms intensively aggravate since 6 months of age (accelerated senescence) (Miyamoto M., Characteristics of age-related behavioral changes in senescence-accelerated mouse SAMP8 and SAMP10. Exp. Gerontolol. 1997, v. 32, p. 139-148; Shimada A. et al. Age-related deterioration in conditional avoidance task in the SAM-P/10 mouse, an animal model of spontaneous brain atrophy. Brain Res., 1993, v. 608, p. 266-272). Assessment of anxiety level of the mice was carried out under conditions of “elevated criss-cross labyrinth” (ECCL) method (Pellow S. et al. Validation of open:closed arm entries in elevated plus-maze as a measure of anxiety in the rat. Neurosci Meth J. 1985, No 14, p. 149-167; Voronina T. A. et al. “Textbook for Experimental (Preclinical Study) of novel pharmacological compounds”. Moscow, Medicina. 2005, p. 253-263). Labyrinth comprises crossed bands 5×45 cm, with two opposed compartments having vertical walls 30 cm height (closed, dark arms), and two other compartments are open, light arms. Labyrinth is situated 30 cm above the floor. Central platform […] is located at the cross of the planes. The mice were placed on the central platform with their tails directed to light arm. Time spent by the animals in open and closed arms, and the number of entering light and dark arms was registered. Total observation period comprised 5 minutes for each animal. Time spent in the open arms of the unit was considered as the measure of anxiolytic effect.

[2] = system: white nondescript male mice; assay: in vivo; conditions: white nondescript (outbred), mouse, ip, 2 days
Protocol: The study of acute daily toxicity of Compound I was carried out on white nondescript male mice with body weight 25-28 g, which lived in habitual conditions in vivarium and received feed and water ad libitum. Single dose of Compound I was administered intraperitoneally. The animals were under observation for 2 days after the dosing. The dose levels of Compound I used in the toxicity study were as follows: 800 mg/kg, 1000 mg/kg, 1200 mg/kg, 1500 mg/kg, 1600 mg/kg. Compound I was dissolved in distilled water and administered in 0, 1 ml per 10 g of the body weight of the animal when the doses 800 mg/kg and 1000 mg/kg, and in 0.2 ml per 10 g of the body weight when the doses 1200 mg/kg, 1500 mg/kg, 1600 mg/kg were used. Control animals received distilled water in the volume 0.2 ml per 10 g of the body weight.
Each dose group comprised 10 animals.

mice SAM P 10 [3] = assay: Antidepressant activity: forced swimming in mice SAM; format: in vivo; conditions: first 6 minutes of forced swimming
Protocol: Exp. Gerontolol. 1997, […]. et al. Age-related deterioration in conditional avoidance task in the SAM-P/10 mouse, an animal model of spontaneous brain atrophy. Brain Res., 1993, v. 608, p. 266-272). To assess depressive condition the method of forced swimming was used (Porsolt R. D. et al., Behavioral despair in rats: a new model sensitive to antidepressant treatment. Europ. J. […] The mice were placed into cylinder 10 cm in diameter and 25 cm height. Cylinder was filled with water by 1⁄3 (27° C.). After unsuccessful attempts to get out of the water the animals have typical immovable posture, which is regarded as manifestation of “despair”.

## O=C([O-])CC[C@H](NC(=O)c1cncc(O)c1)C(=O)[O-].[Ca+2] [Compound I, Calcium N-(5-hydroxynicotinoyl)-L-glutamate]
Mice SAM P 10 [1]; 5 mg/kg
  Number of entries the closed arms: 15.6 ± 2.1
  Number of entries the opened arms: 5.7 ± 0.6
  Time spent in the closed arms (c): 247.0 ± 6.4 c
  Time spent in the opened arms (c): 21.1 ± 4.6 c
Mice SAM P 10 [1]; 10 mg/kg
  Number of entries the closed arms: 20.51 ± 3.1
  Number of entries the opened arms: 7.7 ± 0.2
  Time spent in the closed arms (c): 262.0 ± 22.1 c
  Time spent in the opened arms (c): 23.9 ± 5.8 c
Mice SAM P 10 [1]; 20 mg/kg
  Number of entries the closed arms: 19.3 ± 2.5
  Number of entries the opened arms: 13.0 ± 1.1
  Time spent in the closed arms (c): 234.8 ± 8.7 c
  Time spent in the opened arms (c): 28.4 ± 6.2 c
[2]
  LD16: 900 mg/kg
  LD84: 1450 mg/kg
Mice SAM P 10 [3]; 10 mg/kg
  Period of active behaviour: 190.00 ± 9.50 s
Mice SAM P 10 [3]; 20 mg/kg
  Period of active behaviour: 225.00 ± 10.97 s
